Measurements taken from patent US5760036A, “Aminediol protease inhibitors” (E. R. Squibb & Sons, Inc., priority 1995, dated 1998).

The compounds below were run against T1, HIV protease (Human immunodeficiency virus type 1 group M subtype B, UniProt P04585) (assay: HIV Protease Assay). Settings: 10 μM inhibitor, 4% DMSO, 450 μM substrate, pH 5.5, 30 minutes at 37° C., RP-HPLC.
T1 construct: and purified protease
Type: biochemical
Outline: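 At a single final concentration of 10 μM (4% DMSO), inhibitors were added to a 30-minute, 37° C reaction of purified enzyme with 450 μM H2N-Val-Ser-Gln-Asn-(β-naphthyl-alanine)-Pro-Val-Ile-OH at pH 5.5 (sodium acetate, BSA). Hydrolysis was quantified by reverse-phase HPLC with 220 nm detection after acid quench.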
With `CC(C)(C)OC(=O)N[C@@H](Cc1ccccc1)[C@H](O)CNC[C@@H](O)[C@H](Cc1ccccc1)NC(=O)C1(O)CCc2ccccc21` (single isomer, unassigned; isomer b) [Compound 376, [1S-[1R*,2S*(2S*, 3R*)]]-[3-[[3-[[(2,3-Dihydro-1-hydroxy-1H-inden-1-yl)carbonyl]amino]-2-hydroxy-4-phenylbutyl]amino]-2-hydroxy-1-(phenylmethyl)propyl]carbamic acid, 1.1-dimethylethyl ester, isomer B] the “HIV Protease % Inhibition at 10 μM” value was 63%.

Same assay, conditions: pH 5.5, 10 μM inhibitor, 4% DMSO, 450 μM substrate, pH 5.5, 30 minutes at 37° C., RP-HPLC; read-out: HIV Protease % Inhibition at 10 μM
Work on `COC(=O)N[C@H](C(=O)N[C@@H](Cc1ccccc1)[C@H](O)CNC[C@@H](O)[C@H](Cc1ccccc1)NC(=O)[C@](C)(O)C(C)(C)C)C(C)(C)C` (relative stereo) [Compound 383, [1R*,2S*[2S*, 3R*(S*)]]-N-[2-Hydroxy-3-[[2-hydroxy-3-[(2-hydroxy-2,3,3-trimethyl-1-oxobutyl)amino]-4-phenylbutyl]amino]-1-(phenylmethyl)propyl]-N^2-(2-methoxycarbonyl)-3-methyl-L-valinamide] yielded an inhibition at 10 µM of 99%. `CC(C)(C)OC(=O)NC[C@H](O)[C@@H](Cc1ccccc1)NC[C@@H](O)[C@H](Cc1ccccc1)NC(=O)OC(C)(C)C` [Compound 187, [2S-[2R*,3S*(2S*,3R*)]]-[3-[[3-[[(1,1-Dimethylethoxy)carbonyl]amino]-2-hydroxy-4-phenylbutyl]amino]-2-hydroxy-4-phenylbutyl]carbamic acid, 1,1-dimethylethyl ester] gave an inhibition at 10 µM of 28%. With `CC(C)(C)OC(=O)N[C@@H](Cc1ccccc1)[C@H](O)CNC[C@@H](O)[C@H](Cc1ccccc1)NC(=O)[C@@H](O)C(C)(C)C` [Compound 335, [1S-[1R*,2S*[2S*,3R*(R*)]]]-[3-[[3-[(2-Hydroxy-3,3-dimethyl-1-oxobutyl)amino]-2-hydroxy-4-phenylbutyl]amino]-2-hydroxy-1-(phenylmethyl)propyl]carbamic acid, 1,1-dimethylethyl ester] the inhibition at 10 µM was 89%. Compound `CC(C)(C)OC(=O)N[C@@H](Cc1ccccc1)[C@H](O)CNC[C@@H](O)[C@H](Cc1ccccc1)NC(=O)C1(O)CCCCC1(C)C` (single isomer, unassigned; isomer a) [Compound 361, [1S-[1R*,2S*(2S*,3R*)]]-[3-[[3-[[2 , 2-Dimethyl-1-hydroxycyclohexyl)carbonyl]amino]-2-hydroxy-4-phenylbutyl]amino]-2-hydroxy-1-(phenylmethyl) propyl]carbamic acid, 1,1-dimethylethyl ester, isomer A] has an inhibition at 10 µM of 97%. With `CC(C)(C)OC(=O)N[C@@H](Cc1ccccc1)[C@H](O)CNC[C@H](O)[C@@H](Cc1ccccc1)NC(=O)OC(C)(C)C` [Compound 26ii, [1R-[1R*,2S*(2R*,3S*)]]-3-[[3-[[(1,1-Dimethylethoxy)carbonyl]amino]-2-hydroxy-4-phenylbutyl]amino]-2-hydroxy-1-(phenylmethyl)-propyl]carbamic acid, 1,1-dimethylethyl ester] the inhibition at 10 µM was 41%. `CC(C)[C@H](NC(=O)OCc1ccccc1)C(=O)N[C@@H](Cc1ccccc1)[C@@H](O)CNC[C@H](O)[C@H](Cc1ccccc1)NC(=O)[C@@H](NC(=O)OCc1ccccc1)C(C)C` [Compound 119, [S-(1R*,2R*)]-N,N'-[Iminobisr[2-hydroxy-1-(phenylmethyl)-3,1-propanediyl]]bis[N^2-[phenylmethyloxy)carbonyl]-L-valinamidel] was tested, and the inhibition at 10 µM was 10%. `CC(C)(C)OC(=O)N[C@@H](Cc1ccccc1)[C@H](O)CNC[C@@H](O)[C@H](Cc1ccccc1)NC(=O)C(=NO)C(C)(C)C` [Compound 295, [1S-[1R*,2S*(2S*,3R*)]]-[2-Hydroxy-3-[[2-hydroxy-3-[[2-(hydroxyimino)-3,3-dimethyl-1-oxobutyl]amino]-4-phenylbutyl]amino]-1-(phenylmethyl)propyl]carbamic acid, 1,1-dimethylethyl ester] was tested, and the inhibition at 10 µM was 82%.
